Experimental data published in ChEMBL document CHEMBL1153874, “Synthesis and biological evaluation of cytotoxic properties of stilbene-based resveratrol analogs” (Eur J Med Chem, 2009).
≈ marks a conversion by molar mass, not a printed value.

What was measured:
Lytechinus variegatus [1] = assay: Antimitotic activity in Lytechinus variegatus embryo assessed as inhibition of third cleavage at 39.4 uM relative to control; type: functional
CCRF-CEM = assay: Cytotoxicity against human CEM cells after 72 hrs by MTT assay; type: cell-based
[2] = Toxicity in mouse erythrocytes assessed as hemolysis at 1.5 to 200 ug/mL after 30 min by spectrophotometry; type: cell-based; conditions: erythrocyte, 0.5 h
K562 = assay: Cytotoxicity against human K562 cells after 72 hrs by MTT assay; type: functional, cell-based; conditions: K562, 72 h
HL-60 = assay: Cytotoxicity against human HL60 cells after 72 hrs by MTT assay; type: functional, cell-based; conditions: HL-60, 72 h
[3] = Antimitotic activity in Lytechinus variegatus embryo assessed as inhibition of blastula formation at 394 uM relative to control; type: functional
Lytechinus variegatus [4] = assay: Antimitotic activity in Lytechinus variegatus embryo assessed as inhibition of first cleavage at 39.4 uM relative to control; type: functional
Lytechinus variegatus [5] = assay: Antimitotic activity in Lytechinus variegatus embryo assessed as inhibition of first cleavage at 394 uM relative to control; type: functional
MDA-MB-435 = assay: cells; conditions: Homo sapiens, MDA-MB-435, 72 h
Description: Cytotoxicity against human MDA-MB-435 cells after 72 hrs by MTT assay

Lytechinus variegatus [6] = assay: Antimitotic activity in Lytechinus variegatus embryo assessed as inhibition of third cleavage at 394 uM relative to control; type: functional
[7] = Antimitotic activity in Lytechinus variegatus embryo assessed as inhibition of blastula formation at 39.4 uM relative to control; type: functional
B16 = assay: Cytotoxicity against mouse B16 cells after 72 hrs by MTT assay; type: functional, cell-based; conditions: B16, 72 h
PC-3 = assay: cells; conditions: Homo sapiens, PC-3, 72 h
Description: Cytotoxicity against human PC3 cells after 72 hrs by MTT assay

HCT-8 = assay: Cytotoxicity against human HCT8 cells after 72 hrs by MTT assay; type: functional, cell-based; conditions: HCT-8, 72 h
[8] = Antimitotic activity in Lytechinus variegatus embryo assessed as inhibition of blastula formation at 37 uM relative to control; type: functional
Lytechinus variegatus [9] = assay: Antimitotic activity in Lytechinus variegatus embryo assessed as inhibition of first cleavage at 370 uM relative to control; type: functional
Lytechinus variegatus [10] = assay: Antimitotic activity in Lytechinus variegatus embryo assessed as inhibition of third cleavage at 370 uM relative to control; type: functional
Lytechinus variegatus [11] = assay: Antimitotic activity in Lytechinus variegatus embryo assessed as inhibition of third cleavage at 37 uM relative to control; type: functional
Lytechinus variegatus [12] = assay: Antimitotic activity in Lytechinus variegatus embryo assessed as inhibition of first cleavage at 37 uM relative to control; type: functional
[13] = Antimitotic activity in Lytechinus variegatus embryo assessed as inhibition of blastula formation at 370 uM relative to control; type: functional
Lytechinus variegatus [14] = assay: Antimitotic activity in Lytechinus variegatus embryo assessed as inhibition of third cleavage at 41.7 uM relative to control; type: functional
Lytechinus variegatus [15] = assay: Antimitotic activity in Lytechinus variegatus embryo assessed as inhibition of third cleavage at 417 uM relative to control; type: functional
Lytechinus variegatus [16] = assay: Antimitotic activity in Lytechinus variegatus embryo assessed as inhibition of first cleavage at 417 uM relative to control; type: functional
[17] = Antimitotic activity in Lytechinus variegatus embryo assessed as inhibition of blastula formation at 417 uM relative to control; type: functional
[18] = Antimitotic activity in Lytechinus variegatus embryo assessed as inhibition of blastula formation at 41.7 uM relative to control; type: functional
Lytechinus variegatus [19] = assay: Antimitotic activity in Lytechinus variegatus embryo assessed as inhibition of first cleavage at 41.7 uM relative to control; type: functional
Lytechinus variegatus [20] = assay: Antimitotic activity in Lytechinus variegatus embryo assessed as inhibition of first cleavage at 18.4 uM relative to control; type: functional
Lytechinus variegatus [21] = assay: Antimitotic activity in Lytechinus variegatus embryo assessed as inhibition of third cleavage at 18.4 uM relative to control; type: functional
[22] = Antimitotic activity in Lytechinus variegatus embryo assessed as inhibition of blastula formation at 18.4 uM relative to control; type: functional
Lytechinus variegatus [23] = assay: Antimitotic activity in Lytechinus variegatus embryo assessed as inhibition of third cleavage at 184 uM relative to control; type: functional
Lytechinus variegatus [24] = assay: Antimitotic activity in Lytechinus variegatus embryo assessed as inhibition of first cleavage at 184 uM relative to control; type: functional
[25] = Antimitotic activity in Lytechinus variegatus embryo assessed as inhibition of blastula formation at 184 uM relative to control; type: functional
Lytechinus variegatus [26] = assay: Antimitotic activity in Lytechinus variegatus embryo assessed as inhibition of third cleavage at 352 uM relative to control; type: functional
Lytechinus variegatus [27] = assay: Antimitotic activity in Lytechinus variegatus embryo assessed as inhibition of third cleavage at 35.2 uM relative to control; type: functional
Lytechinus variegatus [28] = assay: Antimitotic activity in Lytechinus variegatus embryo assessed as inhibition of first cleavage at 35.2 uM relative to control; type: functional
[29] = Antimitotic activity in Lytechinus variegatus embryo assessed as inhibition of blastula formation at 352 uM relative to control; type: functional
Lytechinus variegatus [30] = assay: Antimitotic activity in Lytechinus variegatus embryo assessed as inhibition of first cleavage at 352 uM relative to control; type: functional
[31] = Antimitotic activity in Lytechinus variegatus embryo assessed as inhibition of blastula formation at 35.2 uM relative to control; type: functional
[32] = Antimitotic activity in Lytechinus variegatus embryo assessed as inhibition of blastula formation at 43.8 uM relative to control; type: functional
Lytechinus variegatus [33] = assay: Antimitotic activity in Lytechinus variegatus embryo assessed as inhibition of first cleavage at 43.8 uM relative to control; type: functional
Lytechinus variegatus [34] = assay: Antimitotic activity in Lytechinus variegatus embryo assessed as inhibition of third cleavage at 43.8 uM relative to control; type: functional
Lytechinus variegatus [35] = assay: Antimitotic activity in Lytechinus variegatus embryo assessed as inhibition of first cleavage at 32 uM relative to control; type: functional
[36] = Antimitotic activity in Lytechinus variegatus embryo assessed as inhibition of blastula formation at 32 uM relative to control; type: functional
Lytechinus variegatus [37] = assay: Antimitotic activity in Lytechinus variegatus embryo assessed as inhibition of third cleavage at 320 uM relative to control; type: functional
Lytechinus variegatus [38] = assay: Antimitotic activity in Lytechinus variegatus embryo assessed as inhibition of first cleavage at 320 uM relative to control; type: functional
[39] = Antimitotic activity in Lytechinus variegatus embryo assessed as inhibition of blastula formation at 320 uM relative to control; type: functional
Lytechinus variegatus [40] = assay: Antimitotic activity in Lytechinus variegatus embryo assessed as inhibition of third cleavage at 32 uM relative to control; type: functional

Row | Structure (SMILES) | IC50 (CCRF-CEM) | Activity [2] | IC50 (K562) | IC50 (HL-60) | IC50 (MDA-MB-435) | IC50 (B16) | IC50 (PC-3) | IC50 (HCT-8) | inhibition (Lytechinus variegatus [14]) | inhibition (Lytechinus variegatus [15]) | inhibition (Lytechinus variegatus [16]) | inhibition at 417 µM [17] | inhibition at 41.7 µM [18] | inhibition (Lytechinus variegatus [19]) | further results
1 | COc1ccc(/C=C(/C(=O)O)c2ccccc2)cc1 | > 25 µg/mL | Non-toxic | > 25 µg/mL | > 25 µg/mL | > 25 µg/mL | > 25 µg/mL | > 25 µg/mL | > 25 µg/mL |  |  |  |  |  |  | inhibition (Lytechinus variegatus [1]): 3.6%; inhibition at 394 µM [3]: 68.7%; inhibition (Lytechinus variegatus [4]): 0%; inhibition (Lytechinus variegatus [5]): 0%; inhibition (Lytechinus variegatus [6]): 9.3%; inhibition at 39.4 µM [7]: 0.3%
2 | COc1cc(/C=C(/C(=O)O)c2ccccc2)ccc1O | > 25 µg/mL | Non-toxic | > 25 µg/mL | > 25 µg/mL | 17.8 µg/mL (≈ 65.7 µM) | > 25 µg/mL | > 25 µg/mL | > 25 µg/mL |  |  |  |  |  |  | inhibition at 37 µM [8]: 5.3%; inhibition (Lytechinus variegatus [9]): 0%; inhibition (Lytechinus variegatus [10]): 7.3%; inhibition (Lytechinus variegatus [11]): 7.6%; inhibition (Lytechinus variegatus [12]): 0%; inhibition at 370 µM [13]: 99.7%
3 | COc1ccc(/C=C/c2ccccc2)cc1OC | > 25 µg/mL | Non-toxic | > 25 µg/mL | > 25 µg/mL | > 25 µg/mL | > 25 µg/mL | > 25 µg/mL | > 25 µg/mL | 6% | 100% | 0% | 100% | 83% | 0% | 
4 | COc1ccc(/C=C\c2ccccc2)cc1OC | > 25 µg/mL | Non-toxic | 6.38 µg/mL (≈ 26.5 µM) | 6.42 µg/mL (≈ 26.7 µM) | 6.08 µg/mL (≈ 25.3 µM) | > 25 µg/mL | > 25 µg/mL | > 25 µg/mL | 100% | 100% | 100% | 100% | 100% | 0% | 
5 | COc1cccc2c1C(=O)c1c(O)c3c(c(O)c1C2=O)C[C@@](O)(C(=O)CO)C[C@@H]3O[C@H]1C[C@H](N)[C@H](O)[C@H](C)O1 [DOXORUBICIN] | 0.02 µg/mL (≈ 0.0368 µM) |  | 0.14 µg/mL (≈ 0.258 µM) |  |  |  | 0.45 µg/mL (≈ 0.828 µM) |  |  |  |  |  |  |  | inhibition (Lytechinus variegatus [20]): 100%; inhibition (Lytechinus variegatus [21]): 100%; inhibition at 18.4 µM [22]: 100%; inhibition (Lytechinus variegatus [23]): 100%; inhibition (Lytechinus variegatus [24]): 100%; inhibition at 184 µM [25]: 100%
6 | O=C(O)/C(=C/c1ccccc1O)c1ccccc1 | > 25 µg/mL | Non-toxic | > 25 µg/mL | > 25 µg/mL | > 25 µg/mL | > 25 µg/mL | > 25 µg/mL | > 25 µg/mL | 96.3% | 100% | 44.5% | 95.4% | 97.3% | 12.3% | 
7 | COc1ccc(/C=C(/C(=O)O)c2ccccc2)cc1OC | > 25 µg/mL | Non-toxic | > 25 µg/mL | > 25 µg/mL | > 25 µg/mL | > 25 µg/mL | > 25 µg/mL | > 25 µg/mL |  |  |  |  |  |  | inhibition (Lytechinus variegatus [26]): 0%; inhibition (Lytechinus variegatus [27]): 0%; inhibition (Lytechinus variegatus [28]): 4.3%; inhibition at 352 µM [29]: 0.7%; inhibition (Lytechinus variegatus [30]): 3%; inhibition at 35.2 µM [31]: 0.7%
8 | Oc1ccc(/C=C/c2cc(O)cc(O)c2)cc1 [RESVERATROL] | 5.91 µg/mL (≈ 25.9 µM) | Non-toxic | 9.62 µg/mL (≈ 42.1 µM) | 2.45 µg/mL (≈ 10.7 µM) | 13.8 µg/mL (≈ 60.5 µM) | 14.3 µg/mL (≈ 62.9 µM) | 3.51 µg/mL (≈ 15.4 µM) | 5.82 µg/mL (≈ 25.5 µM) |  |  |  |  |  |  | inhibition at 43.8 µM [32]: 100%; inhibition (Lytechinus variegatus [33]): 97.9%; inhibition (Lytechinus variegatus [34]): 100%
9 | COc1cc(/C=C(/C(=O)O)c2ccccc2)ccc1OC(C)=O | > 25 µg/mL | Non-toxic | > 25 µg/mL | > 25 µg/mL | > 25 µg/mL | > 25 µg/mL | > 25 µg/mL | > 25 µg/mL |  |  |  |  |  |  | inhibition (Lytechinus variegatus [35]): 0%; inhibition at 32 µM [36]: 5%; inhibition (Lytechinus variegatus [37]): 100%; inhibition (Lytechinus variegatus [38]): 100%; inhibition at 320 µM [39]: 100%; inhibition (Lytechinus variegatus [40]): 2.3%
